Reference: EP3723746B1, “PHENOXY ACIDS FOR THE TREATMENT OF NEUROMUSCULAR DISORDERS” (NMD Pharma A/S, priority 2017, dated 2019)

Key:
human CIC-1 channels = target: T1, human CIC-1 channels (Homo sapiens, UniProt P35523); experiment: Automated patch-clamp on the human isoform of CIC-1 expressed in CHO cells; format: cell-based; conditions: compound added intracellularly vs control cell patches; positive shift reflects CIC-1 inhibition
T1 construct: host or cells: CHO cells constitutively expressing human ClC-1
T1 sequence (P35523 whole entry, canonical isoform): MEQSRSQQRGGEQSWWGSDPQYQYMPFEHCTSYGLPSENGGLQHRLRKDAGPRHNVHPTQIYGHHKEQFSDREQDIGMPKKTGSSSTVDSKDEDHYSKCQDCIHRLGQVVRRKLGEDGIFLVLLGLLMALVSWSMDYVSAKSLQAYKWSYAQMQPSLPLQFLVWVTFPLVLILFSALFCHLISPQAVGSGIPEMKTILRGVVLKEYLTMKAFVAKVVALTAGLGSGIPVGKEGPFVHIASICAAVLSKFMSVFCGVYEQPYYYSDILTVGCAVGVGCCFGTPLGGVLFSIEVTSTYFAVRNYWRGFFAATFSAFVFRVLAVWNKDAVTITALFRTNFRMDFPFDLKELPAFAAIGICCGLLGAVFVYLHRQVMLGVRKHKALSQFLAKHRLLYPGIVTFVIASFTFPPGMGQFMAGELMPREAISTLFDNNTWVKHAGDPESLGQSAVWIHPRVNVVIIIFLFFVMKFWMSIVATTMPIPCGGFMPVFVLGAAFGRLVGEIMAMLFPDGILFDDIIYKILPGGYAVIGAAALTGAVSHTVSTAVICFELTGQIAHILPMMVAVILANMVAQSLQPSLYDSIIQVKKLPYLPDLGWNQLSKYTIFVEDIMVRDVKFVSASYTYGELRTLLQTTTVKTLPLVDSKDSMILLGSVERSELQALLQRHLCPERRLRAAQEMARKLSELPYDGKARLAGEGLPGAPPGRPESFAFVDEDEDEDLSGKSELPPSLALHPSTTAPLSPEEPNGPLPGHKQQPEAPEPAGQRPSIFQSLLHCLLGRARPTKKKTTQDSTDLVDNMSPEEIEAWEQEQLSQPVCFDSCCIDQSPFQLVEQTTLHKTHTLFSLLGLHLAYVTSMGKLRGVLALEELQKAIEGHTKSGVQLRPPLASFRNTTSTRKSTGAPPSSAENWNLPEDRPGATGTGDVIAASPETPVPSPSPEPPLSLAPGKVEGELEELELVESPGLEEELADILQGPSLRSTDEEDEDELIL
Method: The investigatory goal of these experiments was to evaluate how compounds affect the open probability and current amplitude of human CIC-1 channels expressed in CHO cells. Experiments were performed using an automated patch clamp system that allowed high throughput testing of whole cell patches together with both intracellular and extracellular addition of compound.
Automated whole cell patch clamp experiments were performed with the Qpatch 16 system (Sophion Bioscience, Ballerup, Denmark) at room temperature. Data acquisition and analysis were performed in the Qassay software (ver. 5.6, Odense).
To evoke CIC-1 currents in whole cell patches, the membrane potential was initially stepped from a holding potential of -30 mV to +60 mV for 100 ms and then to various test voltages (sweeps) ranging from +120 mV to -140 mV in steps of 20 mV for 300 ms. To obtain tail currents, the membrane potential was stepped to -100 mV after each test voltage for 300 ms and then relaxed to -30 mV for 2 sec between sweeps (Figure 3). I/V relationships for whole cell instant and steady state current amplitudes were obtained by plotting average current densities at the beginning and at the end of the 300 ms step against the membrane potential (Figure 4).
In order to determine the relative overall open probability (P0), the instantaneous tail currents were normalized to the maximal tail current obtained following the most positive voltage step and plotted against the test voltage. Plots of normalized tail currents from each whole cell patch were then fitted to a Boltzmann function allowing determination of half activation voltages (V1/2, Figure 5).
For automated patch clamp experiments extracellular solutions contained: 2 mM CaCl2, 1 mM MgCl2, 10 mM HEPES, 4 mM KCI, 145 mM NaCl, 10 mM Glucose, pH adjusted to 7.4 with NaOH (2 M). Osmolality adjusted to ~320 using sucrose.
Intracellular solutions contained: 80 mM CsF, 60 mM CsCI, 5/1 mM KOH/EGTA, 10 mM HEPES, 10 mM NaCl, pH adjusted to 7.2 with NaOH (2 M). Osmolality adjusted to ~320 mOsm using sucrose.
Cells used in patch clamp experiments were Chinese hamster ovary cells (CHO) constitutively expressing human CIC-1 channels. The amino acid sequence encoded by the cDNA used to create this cell line was identical to the translated sequence for GenBank accession number NM_000083.2. Cells were produced by Charles River (Catalogue CT6175, Cleveland OH, USA) in a cryopreserved format. Experiments were performed on the cells directly after thawing (3 × 10^6 cells used in each experiment).
To evaluate the compound effect on CIC-1, when applied directly to the intracellular side of the cell membrane, the half activation voltage, V1/2, was determined from whole cell patches with compound added to the intracellular solution and then compared to V1/2 determined from control cell patches with only vehicle added to the intracellular solution. Additionally, the effect of extracellular added compound was evaluated by determine V1/2 and steady state current amplitudes before and after exchanging the extracellular solution to contain compound.
The difference in half activation voltage of CIC-1 channels, ΔV1/2, was determined as the difference between the cell patches treated intracellularly with compound and control cells patches and is reported in Table 4 below. A positive shift in ΔV1/2 is reflecting CIC-1 channel inhibition by the tested compound. P-values of <0.05 is considered significant. […]

Lewis rats = experiment: Measurement of in situ muscle contractile characteristics (isometric hindlimb force under cisatracurium block); format: in vivo; conditions: 21.5 mg/kg i.v., cisatracurium infusion, 3 experiments
Method: Isometric hindlimb force was measured in 12-week old female Lewis rats in the presence and absence of compound.
Rats were placed under anesthesia with isoflurane (2-4%), intubated and subsequently connected to a micro ventilator (Microvent 1, Hallowell EMC, US). Two stimulation electrodes were inserted through the skin to stimulate the sciatic nerve. A small incision was made proximal to the ankle, to expose the Achilles tendon, which was tied by cotton string, and connected to a force transducer (Fort250, World Precision Instruments) with adjustable position (Vernier control). The Achilles tendon was then cut distal to the attached cotton string. The rat was placed on a heated pad, and to prevent movement artefacts from contraction of the ankle dorsiflexors, the foot was fixated by tape on a footplate.
Muscle contractile properties were assessed by applying an electrical current (under supramaximal voltage conditions) to the nerve and recording the force generated by the muscle. The muscle was stretched until maximal force was obtained, when assessed by 2 Hz stimulation. Isometric force was measured every 30 seconds at 12 Hz (Twitch), 10 pulses, and at every 5 minutes at 80 Hz (Tetanic) for 1 second (80 pulses). This stimulation pattern was employed throughout the experiment, expect in few cases where 80 Hz stimulation was replaced by 12 Hz (10 pulses). […] When the level of neuromuscular inhibition was stable, the test article was injected i.v. at the chosen concentration. The effect of test article was assessed on its ability to increase force generated from the stimulation pattern applied. The effect was assessed in the ability to increase force per se (tetanic, 80 Hz, stimulation), and the ratio between individual twitch peaks (12 Hz stimulation). The effect was monitored for at least 1 hour after injection of test article. In addition, the time from injection of test article to maximal effect on force (both twitch and tetanic) was noted and the time for the effect to disappear (return to baseline), if possible. When appropriate the infusion of neuromuscular blocking agent was ceased, with the stimulation pattern continued, and the return of force to control levels was monitored. Animals were sacrificed by cervical dislocation while still fully sedated.

CIC-1 channels = target: T2, CIC-1 channels (Rattus norvegicus, UniProt P35524); experiment: Electrophysiological measurement of compound inhibition of CIC-1 in rat muscle (Gm, three micro-electrode technique, soleus muscle fibres); format: cell-based; conditions: reduction of Gm in rat soleus muscle fibres, approx. 30°C; mean ± spread, n = number of experiments
T2 construct: from tissue; host or cells: whole soleus muscle of 12-14 week old Wistar rats
T2 sequence (P35524 1-994): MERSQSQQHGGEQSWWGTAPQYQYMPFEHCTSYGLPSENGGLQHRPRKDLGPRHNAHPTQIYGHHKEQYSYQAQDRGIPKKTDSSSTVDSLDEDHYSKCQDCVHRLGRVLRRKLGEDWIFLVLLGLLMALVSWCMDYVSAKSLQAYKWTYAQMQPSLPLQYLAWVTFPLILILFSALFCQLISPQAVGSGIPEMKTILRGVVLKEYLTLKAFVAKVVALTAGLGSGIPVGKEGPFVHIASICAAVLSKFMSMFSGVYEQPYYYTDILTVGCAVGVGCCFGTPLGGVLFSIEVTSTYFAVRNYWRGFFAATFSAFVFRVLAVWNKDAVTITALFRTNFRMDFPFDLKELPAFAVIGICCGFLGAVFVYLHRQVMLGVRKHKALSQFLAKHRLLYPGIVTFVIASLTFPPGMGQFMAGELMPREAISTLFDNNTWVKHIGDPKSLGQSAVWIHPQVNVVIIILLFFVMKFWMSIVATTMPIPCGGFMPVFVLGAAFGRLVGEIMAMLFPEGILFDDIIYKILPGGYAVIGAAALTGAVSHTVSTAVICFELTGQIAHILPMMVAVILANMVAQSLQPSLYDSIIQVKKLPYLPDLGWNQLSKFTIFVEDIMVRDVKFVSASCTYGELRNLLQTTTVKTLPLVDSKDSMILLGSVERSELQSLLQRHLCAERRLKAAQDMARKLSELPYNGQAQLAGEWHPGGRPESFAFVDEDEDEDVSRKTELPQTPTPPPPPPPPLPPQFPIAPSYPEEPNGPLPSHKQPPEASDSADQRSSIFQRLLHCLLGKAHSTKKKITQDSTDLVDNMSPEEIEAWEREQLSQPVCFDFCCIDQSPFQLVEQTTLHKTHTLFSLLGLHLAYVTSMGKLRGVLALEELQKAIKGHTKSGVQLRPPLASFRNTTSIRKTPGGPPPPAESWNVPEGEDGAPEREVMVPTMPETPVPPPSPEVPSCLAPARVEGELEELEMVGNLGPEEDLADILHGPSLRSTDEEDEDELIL
Excerpt: Table 2: Inhibition of CIC-1 ion channel using compounds of the invention

soleus muscles = experiment: Measurement of force in an in vitro model: recovery of contractile force of isolated rat soleus nerve-muscle preparation after tubocurarine; conditions: Rattus norvegicus, 40 min; 50 µM test compound, after 90 mins 115 nM tubocurarine; percentage of the initial force restored after 40 mins of compound exposure; read-out: Point increase
Method: Recovery of force is quantified as the percentage of the force prior to tubocurarine that is recovered by the compound.
The current invention relates to compounds that inhibit CIC-1 ion channels and increase muscle excitability and thereby improve muscle function in clinical conditions where muscle activation is failing. Such conditions result in loss of contractile function of skeletal muscle, weakness and excessive fatigue. In this series of experiments the compounds were tested for their ability to restore contractile function of isolated rat muscle when the neuromuscular transmission had been compromised akin to neuromuscular disorders.
Experimentally, soleus muscles from 4-5 week old rats were isolated with the motor nerve remaining attached. The nerve-muscle preparations were mounted in experimental setups that enabled electrical stimulation of the motor nerve. Stimulation of the motor nerve led to activation of the muscle fibres and ensuing force production that was recorded.
After mounting the nerve-muscle preparation in the experimental setup, the contractile function of the muscle was initially assessed under the control conditions (Figure 2A). […] The experimental condition mimics the failing neuromuscular transmission in a range of neuromuscular disorders. After addition of tubocurarine the contractile force declined over the next 90 mins to 10-50 % of the control force. 50 µM of the test compound was then added and the contractile force recovered despite the continued presence of tubocurarine. To quantify the ability of the compound to restore force the percentage of the initial force that was restored was determined after 40 mins of compound exposure (Figure 2B) and the point increase is reported in Table 3. Table 3: Percentage increase of initial force that was restored

SMILES | ΔV1/2 (human CIC-1 channels) [mV] | EC50 (CIC-1 channels) [µM] | activation at 50 µM (soleus muscles) [%] | further results
C[C@H](Oc1ccc(Br)cc1C1CC1)C(=O)O [Compound A-2, (2S)-2-(4-bromo-2-cyclopropylphenoxy)propanoic acid] | 9.2 | – | – | change in twitch peaks (Lewis rats; 12 Hz stimulation): no significant change; average increase in tetanic force (Lewis rats; 80 Hz stimulation): 28.5%
C[C@H](Oc1ccc(Cl)cc1C1CC1)C(=O)O [Compound A-4, (2S)-2-(4-chloro-2-cyclopropylphenoxy)propanoic acid] | 8.8 | – | – | –
C[C@H](Oc1ccc(Br)cc1C1CCC1)C(=O)O [Compound A-14, (2S)-2-(4-bromo-2-cyclobutylphenoxy)propanoic acid] | – | 4.3 ± 2.3 | 17 | –
C=Cc1cc(Br)ccc1O[C@@H](C)C(=O)O [Compound A-17, (2S)-2-(4-bromo-2-ethenylphenoxy)propanoic acid] | 10.3 | 4.2 ± 0.7 | 21 | –
C#Cc1cc(Cl)ccc1O[C@@H](C)C(=O)O [Compound A-20, (2S)-2-(4-chloro-2-ethynylphenoxy)propanoic acid] | 26.4 | – | – | –
[2H]C([2H])(C)C(=O)c1cc(Cl)ccc1O[C@@H](C)C(=O)O [Compound A-27, (2S)-2-{4-chloro-2-[(2,2-^2H2)propanoyl]phenoxy}propanoic acid] | – | 8.3 | 36 | –
CCC(=O)c1cc(Cl)ccc1O[C@@H](C)C(=O)O [Compound A-30, (2S)-2-(4-chloro-2-propanoylphenoxy)propanoic acid] | 6.2 | – | – | –
C[C@H](Oc1ccc(Br)cc1C=C(F)F)C(=O)O [Compound A-36, (2S)-2-[4-bromo-2-(2,2-difluoroethenyl)phenoxy]propanoic acid] | 21.5 | 3.7 | 16 | –
C[C@H](Oc1cc(F)c(Br)cc1C1CC1)C(=O)O [Compound A-44, (2S)-2-(4-bromo-2-cyclopropyl-5-fluorophenoxy)propanoic acid] | – | – | 12 | –
C#Cc1cc(Br)ccc1O[C@H](C(=O)O)C1CCC1 [Compound A-46, (2S)-2-(4-bromo-2-ethynylphenoxy)-2-cyclobutylacetic acid] | – | 6.1 | – | –
C#Cc1cc(Br)c(F)cc1O[C@@H](C)C(=O)O [Compound A-47, (2S)-2-(4-bromo-2-ethynyl-5-fluorophenoxy)propanoic acid] | – | – | 15 | –
C#Cc1cc(Cl)c(F)cc1O[C@@H](C)C(=O)O [Compound A-48, (2S)-2-(4-chloro-2-ethynyl-5-fluorophenoxy)propanoic acid] | – | – | 14 | –
C=Cc1cc(Br)ccc1O[C@@H](CCF)C(=O)O [Compound A-51, (2S)-2-(4-bromo-2-ethenylphenoxy)-4-fluorobutanoic acid] | – | 4 ± 3 | 27 | –
C[C@H](Oc1ccc(Br)cc1/C=C/F)C(=O)O [Compound A-52, (2S)-2-{4-bromo-2-[(1E)-2-fluoroethenyl]phenoxy}propanoic acid] | – | 3 | – | –
C#Cc1cc(Br)ccc1O[C@@H](CC)C(=O)O [Compound A-54, (2S)-2-(4-bromo-2-ethynylphenoxy)butanoic acid] | – | 7.2 ± 3.5 | 18 | –
O=C(O)COc1ccc(Br)cc1C1CC1 [Compound A-55, 2-(4-bromo-2-cyclopropylphenoxy)acetic acid] | – | 6.4 | 25 | –
C#Cc1cc(Br)ccc1OCC(=O)O [Compound A-56, 2-(4-bromo-2-ethynylphenoxy)acetic acid] | – | – | 14 | –
